Laboratory results published in patent US4556662A, “Bispidine derivatives and antiarrhythmic compositions” (BASF Aktiengesellschaft, priority 1981, dated 1985).
In brackets after ≈: the same amount, converted by molar mass. Read-outs that look alike come from different tables or passages of the source.

What was measured:
[1] = system: isolated guinea pig atrium; test: Isolated guinea pig left atria: decrease in maximum driving rate (antiarrhythmic activity); set-up: species or system guinea pig (Pirbright white, male); conditions: for EC50: Cavia porcellus, isolated left atria, pH 7.4, 32° C., read-out: Maximum driving rate EC 50% (concentration which causes a 50% decrease in the maximum driving rate); for Maximum driving rate R.A. (relative activity): reference substance B = 1.00
Experimental: (§1) The antiarrhythmic activity of the compound according to the invention is determined on isolated left atria of male guinea pigs (Pirbright white, weight 350 to 450 g). Atria suspended in an organ bath (volume 125 ml) containing carbogen (95% O2 /5% CO2)-saturated Tyrode's solution (pH 7.4, 32° C.) are prestressed with 1.0 g and are driven by square wave pulses of 1 Hz base rhythm and double stimulation threshold values (rheo base: 0.2 to 1.4 V, chronaxia: 0.3 to 0.5 msec). As a criterion of the antiarrhythmic activity, the frequency (in Hz) at which the atria are just still able to follow the sequence of pulses (the maximum driving rate) is determined by automatic continuous increase in frequency. The concentration which produces a 50% decrease in maximum driving rate, i.e. the EC 50%, is calculated from the linear relationship between log concentration (mg/1) of the active substance and relative decrease in maximum driving rate (Δ%).

[2] = system: isolated guinea pig atrium; test: Isolated guinea pig left atria: decrease in force of contraction (negatively inotropic effect); set-up: species or system guinea pig (Pirbright white, male); conditions: for EC25: Cavia porcellus, isolated left atria, pH 7.4, 32° C., read-out: Force of contraction EC 25% (concentration which causes a 25% decrease in the force of contraction); for Q: quotient EC 25% (decrease in force of contraction)/EC 50% (decrease in maximum driving rate): isolated guinea pig atrium; for Force of contraction R.A. (relative activity): reference substance B = 1.00
Experimental: as §1
Furthermore, the concentration which produces a 25% decrease in contraction amplitude, i.e. the EC 25%, is determined, as a measure of the negatively inotropic effect, from the linear relationship between log concentration (mg/1) and relative change in contraction amplitude (Δ%).

[3] = system: aconitine-induced arrhythmia in rats; test: Antiarrhythmic effect on aconitine-induced arrhythmia in the rat (oral); format: in vivo, rat (Sprague Dawley, male); conditions: for ED50: Rattus norvegicus, po, 1 h, read-out: Effective dose EC 50% (dose which prolongs the aconitine infusion time by 50%); for Effective dose R.A. (relative activity): rat, reference substance B = 1.00
Experimental: (§2) Moreover, the antiarrhythmic activity of the novel substances is determined on male rats (Sprague Dawley, weight 200 to 230 g), after oral administration. 45 minutes after administration of the substance, the animals are anesthetized with sodium thiobutabarbital (100 mg/kg, administered intraperitoneally). Aconitine is used as the arrhythmogenic substance, and is infused intravenously at a rate of 0.005 mg/kg per min, 60 minutes after administration of the test substance. […] The dose which prolongs the infusion time by 50%, i.e. the ED 50%, is determined from the linear relationship between log dose (mg/kg) of the test substance and the relative prolongation of the aconitine infusion time (%).

[4] = Toxicity in the rat (oral), dose at which toxic symptoms occur; format: in vivo, rat (Sprague Dawley, male); conditions: in vivo, read-out: Q: quotient of the acute toxic dose and the antiarrhythmic ED 50%
Experimental: as §2
(§3) Further, the dose at which toxic symptoms (changes in the initial ECG, cyanosis or cramp) occur is determined. The quotient of the acute toxic dose and the antiarrhythmic ED 50% is therefore determined as a measure of the toleration.

rat = test: as above; format: in vivo, rat (Sprague Dawley, male); conditions: for Toxic dose (dose after whose administration the first toxic symptoms are observed): changes in the initial ECG, cyanosis or cramp
Experimental: as §2, §3

[5] = system: isolated strips of rat aorta; test: Constrictive effect on isolated strips of rat aorta; conditions: for EC50: spiral strips of rat aorta, 37° C.
From the text: The novel compounds are further characterized by investigation whether, in addition to antiarrhythmic properties, stimulating effects on smooth muscle, which may lead to undesirable side effects (hypertension or stimulation of the uterus), are detectable.

[6] = system: blood pressure of unanesthetized dogs; test: Effect on the blood pressure of unanesthetized dogs (intravenous); format: in vivo, dog
Experimental: Moreover, the effect of the compound according to the invention on the systolic and diastolic blood pressure of unanesthetized dogs on intravenous administration is tested.

[7] = read-out: EC 50, constrictive effect (50% of the contraction obtained with noradrenalin 10^-6 mol/l)

c1ccc(CN2CC3CC(C2)CN(CC(c2ccccc2)c2ccccc2)C3)cc1 [A, N-benzyl-N'-(2,2-diphenylethyl)-bispidine]
EC50 [1]: 1.43 µg/mL (≈ 3.61 µM)
Maximum driving rate R.A. (relative activity) [1]: 3.93
EC25 [2]: 4.92 µg/mL (≈ 12.4 µM)
Q: quotient EC 25% (decrease in force of contraction)/EC 50% (decrease in maximum driving rate) [2]: 3.44
Force of contraction R.A. (relative activity) [2]: 4.43
ED50 [3]: 13 mg/kg
Effective dose R.A. (relative activity) ([3]; oral): 1.75
selectivity ratio [4]: 7.7
Toxic dose (dose after whose administration the first toxic symptoms are observed) (rat): 100 mg/kg

c1ccc(CN2CC3CC(C2)CN(Cc2ccccc2)C3)cc1 [B, N,N'-bisbenzylbispidine]
EC50 [1]: 5.92 µg/mL (≈ 19.3 µM)
EC25 [2]: 21.8 µg/mL (≈ 71.1 µM)
Q: quotient EC 25% (decrease in force of contraction)/EC 50% (decrease in maximum driving rate) [2]: 3.68
ED50 [3]: 22.7 mg/kg
selectivity ratio [4]: 4.4
Toxic dose (dose after whose administration the first toxic symptoms are observed) (rat): 100 mg/kg
EC50 [5, 7]: 3.8 µM
effect on systolic and diastolic blood pressure (in words) [6]: substantial increase in the systolic and in particular in the diastolic blood pressure
Change in blood pressure, diastolic ([6]; 2.0 mg/kg): +59 Δmm Hg
Change in blood pressure, systolic ([6]; 2.0 mg/kg): +20 Δmm Hg

Nc1ccc(C(=O)N2CC3CC(CN(Cc4ccccc4)C3)C2)cc1 [C, N-(4-Aminobenzoyl)-N'-benzylbispidine]
EC50 [1]: 6.14 µg/mL (≈ 18.3 µM)
antiarrhythmic effect on isolated guinea pig atria (in words) ([1]; decrease in maximum driving rate): powerful antiarrhythmic effect
Maximum driving rate R.A. (relative activity) [1]: 0.96
EC25 [2]: 100 µg/mL (≈ 298 µM)
decrease in the force of contraction (in words) ([2]; isolated guinea pig atria): relatively small decrease in the force of contraction
Q: quotient EC 25% (decrease in force of contraction)/EC 50% (decrease in maximum driving rate) [2]: 16.3
Force of contraction R.A. (relative activity) [2]: 0.22
ED50 [3]: 6.37 mg/kg
antiarrhythmic activity relative to reference substance A ([3]; aconitine-induced arrhythmia in rats, oral, versus A): twice
antiarrhythmic activity relative to reference substance B ([3]; aconitine-induced arrhythmia in rats, oral, versus B): about 4 times
antiarrhythmic activity relative to sparteine ([3]; aconitine-induced arrhythmia in rats, oral, versus sparteine): ~18 times
Effective dose R.A. (relative activity) ([3]; oral): 3.56
selectivity ratio [4]: 7.3
Toxic dose (dose after whose administration the first toxic symptoms are observed) (rat): 46.4 mg/kg
difference between toxic and antiarrhythmic doses, relative to reference substances (rat; versus reference substances): about twice the difference or about the same difference, respectively
stimulating effects on smooth muscle (in words) ([5]; Table 3): lack of stimulating effects on smooth muscle
constrictive effect on the vascular muscle in vitro (in words) ([5]; even in very high concentrations (3.10^-4 mol/l)): no constrictive effect
EC50 ([5]; no effect up to 3.10^-4 mol/l, read-out: EC 50, constrictive effect (symbol for no effect)): > 300 µM
effect on systolic and diastolic blood pressure (in words) [6]: no hypertensive effect
Change in blood pressure, diastolic ([6]; 2.0 mg/kg): -2 Δmm Hg
Change in blood pressure, systolic ([6]; 2.0 mg/kg): -5 Δmm Hg

C1CCN2C[C@@H]3C[C@@H](CN4CCCC[C@@H]34)[C@H]2C1 [Sparteine, sparteine]
ED50 [3]: 112 mg/kg
Effective dose R.A. (relative activity) ([3]; oral): 4.93
selectivity ratio [4]: 4.1
Toxic dose (dose after whose administration the first toxic symptoms are observed) (rat): 464 mg/kg
EC50 [5, 7]: 550 µM
effect on systolic and diastolic blood pressure (in words) [6]: substantial increase in the systolic and in particular in the diastolic blood pressure
Change in blood pressure, diastolic ([6]; 5.0 mg/kg): +40 Δmm Hg
Change in blood pressure, systolic ([6]; 5.0 mg/kg): +19 Δmm Hg
